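Following 48 hours of exposure in 96-well plates, responses at five concentrations were used to interpolate endpoints linearly. At the GI50, growth is halved.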 Active and inactive are the calls of the source. No stated cut-off is given here; in the data, active = GI50 up to about 1.1 µM and inactive = higher.
Experiments:
Experiment in all cases: NCI-60 cell line screen, 48 h
[1] = test system: CCRF-CEM
[2] = test system: NCI/ADR-RES
[3] = test system: A549
[4] = test system: T47D
[5] = test system: LOX IMVI
[6] = test system: MDA-N
[7] = test system: MOLT-4
[8] = test system: MDA-MB-231
[9] = test system: UACC-257
[10] = test system: SN12C
[11] = test system: SNB-75
[12] = test system: SNB-19
[13] = test system: HCT-116
[14] = test system: U-251
[15] = test system: HT-29
[16] = test system: RPMI-8226
[17] = test system: UO-31
[18] = test system: OVCAR-8
[19] = test system: BT-549

Measured: GI50

c1ccc(C2=NN(c3nc4ccccc4s3)C3(CCCCC3)N2)nc1
inactive: [1] 29 µM | [2] 19.7 µM | [3] 27.4 µM | [4] 7.64 µM | [5] 20.1 µM | [6] 24.9 µM | [7] 4.01 µM | [8] 21.6 µM | [9] 16.7 µM | [10] 19.7 µM | [11] 25.6 µM | [12] 40.2 µM | [13] 26.4 µM | [14] 20.4 µM | [15] 19.9 µM | [16] 16.1 µM | [17] 35.1 µM | [18] 31.8 µM | [19] 20.5 µM

c1cnc(N2CCN(Cc3c[nH]c4ccccc34)CC2)nc1
inactive: [1] 50.1 µM | [2] 52.8 µM | [3] 80.4 µM | [4] 22.6 µM | [5] 45.8 µM | [6] 25.1 µM | [7] 36.6 µM | [8] 37.2 µM | [9] 28.8 µM | [10] 42.1 µM | [11] 89.9 µM | [12] > 100 µM | [13] 26.2 µM | [14] 37.1 µM | [15] 56.6 µM | [16] 11.7 µM | [17] 38.5 µM | [18] 95.9 µM | [19] 42.1 µM

COc1ccc(-c2cc(C(O)C3CCCCN3)c3ccccc3n2)cc1 (stereo unspecified)
inactive: [1] 2.8 µM | [2] 16.7 µM | [3] 13.8 µM | [4] 4 µM | [5] 2.62 µM | [6] 4.92 µM | [7] 3.59 µM | [8] 2.36 µM | [9] 2.15 µM | [10] 10.6 µM | [11] 4.31 µM | [12] 13.7 µM | [13] 9.35 µM | [14] 3.63 µM | [15] 3.11 µM | [16] 2.33 µM | [17] 3.59 µM | [18] 13.7 µM | [19] 15.9 µM

COC1=C2C=[N+](C)C3C(=C2C=CC1OC)Cc1cc2c(cc13)OCO2 (stereo unspecified)
inactive: [1] 6.37 µM | [2] 29.9 µM | [3] 15.8 µM | [4] 5.02 µM | [5] 16.3 µM | [6] 11.4 µM | [7] 3.77 µM | [8] 14.6 µM | [9] 11.4 µM | [10] 4.43 µM | [11] 14.8 µM | [12] 5.28 µM | [13] 13.8 µM | [14] 9.42 µM | [15] 13.5 µM | [16] 2.53 µM | [17] 13.7 µM | [18] 22 µM | [19] 12.7 µM

O=C1N2CCN=C2c2ccccc2C1(O)c1ccccc1 (stereo unspecified)
inactive: [1] > 100 µM | [2] > 100 µM | [3] > 100 µM | [4] > 100 µM | [5] > 100 µM | [6] > 100 µM | [7] > 100 µM | [8] > 100 µM | [9] > 100 µM | [10] > 100 µM | [11] > 100 µM | [12] > 100 µM | [13] > 100 µM | [14] > 100 µM | [15] > 100 µM | [16] > 100 µM | [17] > 100 µM | [18] > 100 µM | [19] > 100 µM

O=C(CNS(=O)(=O)Cc1ccccc1)NNc1ccccc1
inactive: [1] > 100 µM | [2] > 100 µM | [3] > 100 µM | [4] > 42.3 µM | [5] 1.85 µM | [6] 15.7 µM | [7] > 100 µM | [8] > 100 µM | [9] > 78.2 µM | [10] > 100 µM | [11] > 36.6 µM | [12] > 100 µM | [13] > 100 µM | [14] > 100 µM | [15] > 100 µM | [16] 18.4 µM | [17] > 100 µM | [18] > 100 µM | [19] > 100 µM

COc1cc(/C=C2/CCS(=O)(=O)c3ccc(C)cc3C2=O)cc(OC)c1OC
inactive: [1] 2.85 µM | [2] 3.14 µM | [3] 4.88 µM | [4] 3.6 µM | [5] 2.61 µM | [6] 4.29 µM | [7] 3.62 µM | [8] 3.58 µM | [9] 4.15 µM | [10] 3.66 µM | [11] 5.27 µM | [12] 4.1 µM | [13] 2.95 µM | [14] 4.14 µM | [15] 3.92 µM | [16] 2.65 µM | [17] 5.75 µM | [18] 2.7 µM | [19] 3.52 µM

CCN(CC)C1C(=O)NC1C#Cc1ccccc1 (stereo unspecified)
inactive: [1] 32 µM | [2] > 100 µM | [4] 84.7 µM | [5] 39.7 µM | [6] 57.3 µM | [7] > 10 µM | [8] > 100 µM | [9] > 100 µM | [10] > 100 µM | [11] > 100 µM | [12] > 100 µM | [13] > 100 µM | [14] > 100 µM | [15] 48 µM | [16] 76.7 µM | [17] > 100 µM | [18] > 100 µM | [19] 61.9 µM
